“Also recorded” adds a separate entry of the source.
Assays:
[1] = system: HLA-A, HLA-B, HLA-C, PSMB8, PSMB9, PSMB10 mRNA; assay: mRNA levels of MHC-I and immunoproteasome genes (RT-PCR, RNA-seq); assay type: cell-based, human; conditions: MB135 cells, 50 uM, data not shown
Protocol: (§1) Myoblasts were transfected with either (final concentrations) 10 μM 2′,3′-cGAMP (Sigma Aldrich), 2 μg/mL poly(I:C) (Invitrogen), or 1 μg/mL 3′ppp-dsRNA RIG-I ligand (Dan Stetson Lab, UW) using Lipofectamine 2000 according to manufacturer's protocol, or were stimulated with 1000U IFNβ (PeproTech) or 200 ng/ml IFNγ (R+D Systems) by addition directly to cell culture medium. After 16 hours of immune stimulation, RNA was collected from cells using the NucleoSpin RNA Kit (Macherey-Nagel) according to manufacturer's instructions. RNA samples were quantified by nanodrop and 1 μg of RNA per sample was treated with DNase I Amplification Grade (Thermo Fisher), and then synthesized into cDNA using the Superscript IV First-Strand Synthesis System, including oligo dT primers (Invitrogen). qPCR was run in 384-well plates on an Applied Biosystems QuantStudio 6 Flex Real-Time PCR System (ABI) and analyzed in Microsoft Excel.
Total RNA was isolated using the NucleoSpin RNA kit (Machery-Nagel) or Direct-zol RNA Mini-Prep Kit (Zymo Research) according to manufacturer's instructions. RNA-seq libraries were prepared using the Illumina TruSeq RNA Sample Prep v2 Kit and sequenced using 50 bp paired-end sequencing on the Illumina NextSeq platform by the Fred Hutchinson Cancer Center Genomics Core.

[2] = system: MHC-I, PSMB8, PSMB9, and PSMB10; assay: Immunoblot of IFNG-induced MHC-I and immunoproteasome protein in MB135 myoblasts treated with inhibitors; assay type: cell-based, human; conditions: MB135 myoblasts without DUX4 induction, agent then IFNG 16 h; 4EGI-1 at 50 uM
Protocol: To test if mTOR inactivation was sufficient to block MHC-I and immunoproteasome protein levels in the absence of DUX4, parental MB135 myoblasts were treated with mTOR inhibitors everolimus or Torin2. Everolimus is a second-generation rapamycin analog with binding specificity for mTORC1. […] To further validate the role of 4EBP1 in blocking MHC-I and immunoproteasome protein expression, MB135 cells were treated with 4EGI-1, a small molecule that pharmacologically mimics 4EBP function and inhibits eIF4E.
(§2) Protein samples were harvested in RIPA buffer [150 mM NaCl, 1% NP-40, 0.5% Na-deocycholate, 1% SDS, 25 mM Tris-HCl pH7.4] supplemented with protease and phosphatase inhibitor tablets (Pierce), followed by sonication in Diagenode Bioruptor. Lysate was cleared by centrifugation at 16000×g and quantified using a Pierce BCA assay (Thermo Fisher Scientific). Samples were run on NuPAGE precast polyacrylamide gels (Invitrogen) and transferred to PVDF membrane. Membranes were blocked in PBS containing 0.1% Tween-20 and 5% non-fat dry milk before overnight incubation at 4° C. with primary antibodies (see resource table for a list of antibodies used in this study). Membranes were incubated with horseradish peroxidase-conjugated secondary antibodies for 1 hour at room temperature and SuperSignal chemiluminescent substrate (Thermo Scientific) was used for detection on film with a Mini-medical 90 processor. Membranes were stripped with Restore Western Blot Stripping Buffer (Pierce).

[3] = system: eIF2-alpha, RPS6, 4EBP1, eIF4E, eEF2; assay: Immunoblot of translational regulators; assay type: cell-based, human; conditions: parental MB135 myoblasts treated with mTOR inhibitor
Protocol: as §2

[4] = system: proteins that co-immunoprecipitated with DUX4-CTD constructs expressed in MB135 myoblasts; assay: LC-MS of proteins co-immunoprecipitated with DUX4-CTD (Table 1) and western validation; assay type: binding, human; parameters: key to 4. mL1dL2 + Dox + IFNG / 4. + IFNG mix / 4. longCTD + Dox + IFNG / 3. + IFNg + Dox longCTD / 3. + Dox longCTD / 3. + IFNG longCTD: peptide-spectrum matches (PSMs) per protein; conditions: kind of count not given; for 4. mL1dL2 + Dox + IFNG: LC-MS value per protein co-immunoprecipitated with DUX4-CTD construct mL1dL2 in MB135 myoblasts
Excerpt: As an unbiased method to identify proteins that interact with the C-terminal region of DUX4, liquid chromatography mass spectroscopy (LC-MS) was used to identify proteins that co-immunoprecipitated with DUX4-CTD constructs expressed in MB135 myoblasts. In the first experiment, MB135iDUX4-CTD cells were used, either untreated, treated with doxycycline alone, or with both doxycycline and IFNG. In the second experiment, MB135iDUX4-CTD and MB135iDUX4mL1dL2 cells were used, both treated with doxycycline and IFNG, compared to these two cell lines untreated and combined as a control. Proteins with a minimum of 2 peptide spectrum matches (PSMs) in at least one sample that were identified in both experiments were assigned to one of ten categories (see Methods) to separate candidate interactors from other categories that might be co-purified because of obligate interactions (e.g., proteasome or ribosome) or might be less likely to be physiologically relevant (e.g., cytoskeletal proteins). Candidate interactors were then ranked based on the total PSMs for that protein across all samples.
Centrifugation at 2500 rcf at 4° C. for 5 min pelleted the nuclei, supernatant was discarded, and nuclei resuspended in 1 mL IP buffer pH 7.4 (25 mM Tris-HCl pH 7.5, 175 mM NaCl, 1 mM EDTA, 0.2% NP-40, 5% glycerol) and incubated for 1 hour at 4° C. with rotation then spun at 21000 rcf for 10 minutes at 4° C. to pellet insoluble debris. Protein concentration was determined using the Pierce BCA Protein Assay Kit (ThermoFisher, 23225). An equivalent amount of protein per sample was pre-cleared with Dynabeads Protein G (Invitrogen) bound to mouse IgG (Abcam #131368) for 1 hour at 4° C. with rotation. FLAG-tagged constructs were then immunoprecipitated with Dynabeads Protein G beads coupled to mouse anti-FLAG M2 mAb (Sigma F3165) for 3 hours at 4° C. with rotation. Beads were washed 3× with 1 mL IP buffer and eluted by adding 2× NuPage LDS Sample Buffer (Thermo Fisher, diluted from 4× with PBS) to the beads and heating for 10 minutes at 70° C.
For LC-MS, anti-FLAG immunoprecipitation was performed with beads cross-linked to the anti-FLAG antibody and the proteins competitively eluted with FLAG peptide. Eluted protein samples were electrophoresed into a NuPage 4-12% Bis-Tris gel, excised, and processed by the Fred Hutchinson Cancer Research Center Proteomics Core. Samples were reduced, alkylated, digested with trypsin, desalted, and run on the Orbitrap Eclipse Tribid Mass Spectrometer (Thermo Fisher). Proteomics data were analyzed using Proteome Discoverer 2.4 against a Uniprot human database that included common contaminants using Sequest HT and Percolator for scoring. […] Proteins that were identified in at least one sample from both independent experiments with at least 2 PSMs in one sample were assigned to one of ten categories: 1, candidates; 2, cytoskeletal associated; 3, cytoskeletal; 4, ribosome/translation associated; 5, proteasome associated; 6, membrane or extracellular; ER, golgi, or vesicle associated; 8, lipid metabolism; 9, chaperones; 10, nuclear import or nuclear membrane associated. The proteins in category 1 were further investigated for interactions with DUX4.

[5] = system: interferon-stimulated genes IFIH1, ISG20, CXCL9, and CD74; assay: IFNG induction of interferon-stimulated genes, RT-qPCR in MB135 cells with doxycycline-inducible transgenes; assay type: cell-based, human; conditions: MB135 cells, doxycycline-induced transgene, continuous protocol, IFNG 16 h
Protocol: (§3) All myoblast experiments were conducted in immortalized MB135 or MB200 myoblast cell lines (isolated from a control or FSHD2 subject, respectively cultured in Ham's F-10 Nutrient Mix (Gibco) supplemented with 15% fetal bovine serum (Hyclone), 100 U/100 μg/ml penicillin/streptomycin (Gibco), 1 μM dexamethasone (Sigma), and 10 ng/ml recombinant human basic fibroblast growth factor (PeproTech). To differentiate the myoblasts to myotubes, media was changed to DMEM supplemented with 10 μg/ml insulin (Sigma) and 10 μg/ml transferrin (Sigma). Cell lines containing doxycycline-inducible transgenes were additionally cultured with 2 μg/mL puromycin (Sigma). Transgenes were induced with 1 μg/mL of doxycycline (Sigma) for 4 hours prior to other treatments for a total of 20 hrs. The Kitra-SRS cells (RRID:CVCL_YI69) were provided by Dr. H. Otani and Osaka University (Nakai et al., 2019) and were cultured in DMEM supplemented with 10% fetal bovine serum (Hyclone) and 100 U/100 μg/ml penicillin/streptomycin (Gibco). Biological replicates consisted of independent but parallel experiments, such as simultaneously stimulating three cell culture plates with IFNγ. Technical replicates consisted of repeat measurements of the same biological sample, such as loading the same biological sample in triplicate for analysis by RT-qPCR.
as §1

ZSCAN4 = assay: Activation of DUX4 target gene ZSCAN4, RT-qPCR; assay type: cell-based, human; conditions: MB135 cells ± doxycycline
Protocol: as §3, §1

O=C(O)C(Cc1ccccc1[N+](=O)[O-])=NNc1nc(-c2ccc(Cl)c(Cl)c2)cs1 (mixture of isomers) [4EGI-1]
effect on mRNA levels of MHC-I and iProteasome subunits [1]: had no effect on mRNA levels | effect on IFNG-induced MHC-I and immunoproteasome protein in the absence of DUX4 [2]: suppressed IFNG-induced MHC-I and immunoproteasome subunits at the protein level; also recorded: suppressed IFN-induced MHC-I and iProteasome subunits at the protein level

COc1ccc(C[C@H](NC(=O)[C@H](C)NC(=O)CN2CCOCC2)C(=O)N[C@@H](Cc2ccccc2)C(=O)C2(C)CO2)cc1 (stereo in doubt) [ONX-0914]
effect on IFNG-induced MHC-I and immunoproteasome protein in the absence of DUX4 [2]: did not reduce IFNG-induced MHC-I levels

CC(C)C[C@H](NC(=O)[C@H](CCc1ccccc1)NC(=O)CN1CCOCC1)C(=O)N[C@@H](Cc1ccccc1)C(=O)N[C@@H](CC(C)C)C(=O)[C@@]1(C)CO1 [Carfilzomib]
effect on IFNG-induced MHC-I and immunoproteasome protein in the absence of DUX4 [2]: abrogated the accumulation of MHC-I following IFNG treatment

Nc1ccc(-c2ccc3ncc4ccc(=O)n(-c5cccc(C(F)(F)F)c5)c4c3c2)cn1 [Torin2, reference compound]
phosphorylation of 4EBP1 and eIF4E [3]: complete hypophosphorylation of 4EBP1 and reduced eIF4E phosphorylation | phosphorylation of RPS6 [3]: blocked phosphorylation of RPS6 | effect on IFNG-induced MHC-I and immunoproteasome protein in the absence of DUX4 [2]: sufficient to post-transcriptionally repress IFNG-induced MHC-I, PSMB8, PSMB9, and PSMB10 protein expression

CO[C@H]1C[C@@H]2CC[C@@H](C)[C@@](O)(O2)C(=O)C(=O)N2CCCC[C@H]2C(=O)O[C@H]([C@H](C)C[C@@H]2CC[C@@H](OCCO)[C@H](OC)C2)CC(=O)[C@H](C)/C=C(\C)[C@@H](O)[C@@H](OC)C(=O)[C@H](C)C[C@H](C)/C=C/C=C/C=C/1C [everolimus, reference compound]
phosphorylation of 4EBP1 and eIF4E [3]: 4EBP1 phosphorylation and eIF4E phosphorylation remained largely unaltered | phosphorylation of RPS6 [3]: blocked S6K phosphorylation of RPS6 | effect on IFNG-induced MHC-I and immunoproteasome protein in the absence of DUX4 [2]: did not block MHC-I or immunoproteasome protein expression

USP9X
4. mL1dL2 + Dox + IFNG [4]: 7

VIM
4. + IFNG mix ([4]; LC-MS value per protein co-immunoprecipitated from MB135 myoblasts, + IFNG mix sample (no Dox)): 66 | 4. mL1dL2 + Dox + IFNG [4]: 43

XRCC5
4. mL1dL2 + Dox + IFNG [4]: 1

YBX3
4. mL1dL2 + Dox + IFNG [4]: 7

iDUX4dL2: DUX4 transgene deleting the second (L)LxxL(L) motif, SEQ ID NO:100 (PCGLLLDELLASPEFLQQAQPLLETEAPGELEASEEAASLEAPLSEEYRA)
suppression of IFNG induction of ISGs (IFIH1, ISG20, CXCL9, CD74) [5]: lost the ability to suppress the panel of ISGs | transcriptional activation of DUX4 target gene ZSCAN4 (ZSCAN4): failed to activate the DUX4 target ZSCAN4

iDUX4mL1: DUX4 transgene mutating the first (L)LxxL(L) motif, SEQ ID NO: 99 (PCGLLAAEAAASPEFLQQAQPLLETEAPGELEASEEAASLEAPLSEEEYRALLEEL)
suppression of IFNG induction of ISGs (IFIH1, ISG20, CXCL9, CD74) [5]: partial activity, suppressing 3 of the 4 ISGs | transcriptional activation of DUX4 target gene ZSCAN4 (ZSCAN4): failed to activate the DUX4 target ZSCAN4

Source: US20250339531A1, “DUX4 POLYPEPTIDES AND NUCLEIC ACIDS FOR TREATING INFLAMMATORY AND AUTOIMMUNE CONDITIONS” (Fred Hutchinson Cancer Center, priority 2021, published 2025)
